The text below walks through data of US20230159484A1, “FLUORESCENT DYES HAVING HIGH STOKES SHIFT, ON THE BASIS OF BRIDGED BENZOPYRYLIUM SALTS” (DYOMICS GmbH, priority 2020, published 2023).

Each structure is given as a SMILES string.

Common to all, as to type: physicochemical
The nature of series [1]: UV-Vis absorption (absorption maximum, extinction coefficient). As to the method: (§1) Depending on the basic structure and substitution, the absorption maxima lie in the entire range of visible light, with a focus at 500-530 nm. The compounds show a high Stokes shift in the range of 80 nm. The absorption is measured, for example, at 25° C. in aqueous or ethanolic solutions with an extinction of 1.0 using a Specord 205 from Analytik Jena, wherein the aqueous solutions are preferably phosphate-buffered salt solutions (PBS buffer; approx. 100 mM sodium chloride and 100 mM total phosphate) and have a pH of 7.5. For example, the emission is measured at 25° C. in dilute aqueous or ethanolic solutions with an extinction of 0.1 using a FP-6600 spectrofluorometer from Jasco, wherein the dilute aqueous solutions are preferably phosphate-buffered salt solutions (PBS buffer; about 100 mM sodium chloride and 100 mM total phosphate) and have a pH of 7.5.

Series [2] can be described thus: Fluorescence emission (emission maximum). As to the method: as §1
The nature of series [3]: Fluorescence quantum yield. Here is the method:
Preferably, the fluorescence quantum yield of a compound according to the invention is 0.1 to 0.95, more preferably 0.5 to 0.9. Fluorescence quantum yields are preferably determined at 25° C. in dilute aqueous or ethanolic solutions with an extinction of 0.1 using a Hamamatsu Absolute Photoluminescence Quantum Yield Measurement System C-9920, wherein the dilute aqueous solutions are preferably phosphate-buffered salt solutions (PBS buffer; about 100 mM sodium chloride and 100 mM total phosphate) and have a pH of 7.5. The compounds thus complement the already commercially available dyes with high Stokes Shift or represent better fluorescent alternatives.

As to `CCN(CCCCCC(=O)O)c1ccc2cc3c([o+]c2c1)C=C(NCCCS(=O)(=O)[O-])CC3(C)C` [Compound 8, 3-[[6-[5-Carboxypentyl(ethyl)amino]-1,1-dimethyl-2H-xanthene-10-ium-3-yl]amino]propane-1-sulfonate], the ε in series [1] (UV-Vis in PBS) was 38,500 l/mol*cm; in series [1] (UV-Vis in ethanol), 41,600 l/mol*cm. Also, the λmax in series [1] (UV-Vis in PBS) amounted to 509 nm; in series [1] (UV-Vis in ethanol), 511 nm. The λem in series [2] (in PBS) is recorded as 578 nm; in series [2] (in ethanol) it was 571 nm. In addition, the figures for the QY in series [3] (in PBS) and in series [3] (in ethanol) were 0.58 and 0.84, respectively.

`CC1(C)CC(=O)C(S(=O)(=O)[O-])=C2Oc3cc(N(CCCCCC(=O)O)CCCS(=O)(=O)[O-])ccc3C=C21.[Na+].[Na+]` [Compound 38, 6-[5-carboxypentyl(3-sulfonatopropyl)amino]-1,1-dimethyl-3-oxo-2H-xanthene-4-sulfonate di-sodium SALT]: the ε in series [1] (UV-Vis in PBS) was 28,000 l/mol*cm; in series [1] (UV-Vis in ethanol), 31,000 l/mol*cm. For the same molecule, the λmax in series [1] (UV-Vis in PBS) was determined as 479 nm; in series [1] (UV-Vis in ethanol) it was 463 nm. Further, the λem was 557 nm in series [2] (in PBS) and 544 nm in series [2] (in ethanol). The QY in series [3] (in PBS) is 0.78; in series [3] (in ethanol), 0.91.

`CCN(CCCCCC(=O)O)c1ccc2cc3c([o+]c2c1)C(S(=O)(=O)[O-])=C(Nc1ccc(S(=O)(=O)[O-])cc1)CC3(C)C.[Na+]` [Compound 14, 6-[5-carboxypentyl(ethyl)amino]-1,1-dimethyl-3-(4-sulfonatoanilino)-2H-xanthene-10-ium-4-sulfonate Sodium Salt]: the ε is listed as 40,100 l/mol*cm in series [1] (UV-Vis in PBS) and 45,300 l/mol*cm in series [1] (UV-Vis in ethanol). Also, the λmax in series [1] (UV-Vis in PBS) is reported as 545 nm; in series [1] (UV-Vis in ethanol), 542 nm. Further, the λem in series [2] (in PBS) was 625 nm; in series [2] (in ethanol), 616 nm. Further, the results for the QY in series [3] (in PBS) and in series [3] (in ethanol) were 0.11 and 0.61, respectively.

On to `CCN(CCCCCC(=O)O)c1ccc2c(c1)OC1=C(S(=O)(=O)[O-])C(=O)CC(C)(C)C1=C2.[Na+]` [Compound 36, 6-[5-carboxypentyl(ethyl)amino]-1,1-dimethyl-3-oxo-2H-xanthene-4-sulfonate Sodium Salt], for which the ε is recorded as 30,100 l/mol*cm in series [1] (UV-Vis in PBS) and 25,000 l/mol*cm in series [1] (UV-Vis in ethanol). In addition, the λmax in series [1] (UV-Vis in PBS) was determined as 482 nm; in series [1] (UV-Vis in ethanol) it was 446 nm. In addition, the λem in series [2] (in PBS) is listed as 565 nm; in series [2] (in ethanol), 542 nm. Further, the QY in series [3] (in PBS) is reported as 0.66; in series [3] (in ethanol) it was 0.90.

As to `CCN(CCCCCC(=O)O)c1ccc2cc3c([o+]c2c1)C=C(N(C)c1ccc(S(=O)(=O)[O-])cc1)CC3(C)C` [Compound 12, 4-[[6-[5-carboxypentyl(ethyl)amino]-1,1-dimethyl-2H-xanthene-10-ium-3-yl]-methyl-amino]benzenesulfonate], the ε is 45,000 l/mol*cm in series [1] (UV-Vis in PBS) and 50,000 l/mol*cm in series [1] (UV-Vis in ethanol). In addition, the λmax in series [1] (UV-Vis in PBS) was 532 nm; in series [1] (UV-Vis in ethanol), 533 nm. Besides, the results for the λem in series [2] (in PBS) and in series [2] (in ethanol) were 619 nm and 610 nm, respectively. The QY in series [3] (in PBS) was determined as 0.26; in series [3] (in ethanol) it was 0.51.

Regarding `CCN(CC)c1ccc2cc3c([o+]c2c1)C=C(NCCCCCC(=O)O)CC3(C)C.[Cl-]` [Compound 3, 6-[[6-(diethylamino)-1,1-dimethyl-2H-xanthene-10-ium-3-yl]amino]hexanoic Acid Chloride Salt], the ε is listed as 39,200 l/mol*cm in series [1] (UV-Vis in PBS) and 32,500 l/mol*cm in series [1] (UV-Vis in ethanol). For the same molecule, the λmax was 505 nm in series [1] (UV-Vis in PBS) and 510 nm in series [1] (UV-Vis in ethanol). Also, the λem in series [2] (in PBS) came out at 570 nm; in series [2] (in ethanol), 575 nm. The figures for the QY in series [3] (in PBS) and in series [3] (in ethanol) were 0.58 and 0.82, respectively.

Turning to `CN(C1=Cc2[o+]c3cc(N(CCCCCC(=O)O)CCCS(=O)(=O)[O-])ccc3cc2C(C)(C)C1)c1ccccc1` [Compound 9, 3-[5-carboxypentyl-[8,8-dimethyl-6-(N-methylanilino)-7H-xanthene-10-ium-3-yl]amino]propane-1-sulfonate], the ε in series [1] (UV-Vis in PBS) was 39,000 l/mol*cm; in series [1] (UV-Vis in ethanol) it was 41,000 l/mol*cm. For the same molecule, the λmax in series [1] (UV-Vis in PBS) was found to be 523 nm; in series [1] (UV-Vis in ethanol) it was 531 nm. Besides, the results for the λem in series [2] (in PBS) and in series [2] (in ethanol) were 600 nm and 601 nm, respectively. Moreover, the QY in series [3] (in PBS) is 0,24; in series [3] (in ethanol) it was 0.47.

For `CCN(CCCCCC(=O)O)c1ccc2cc3c([o+]c2c1)C=C(N(C)c1ccccc1)CC3(C)C.[Cl-]` [Compound 11, 6-[[8,8-dimethyl-6-(N-methylanilino)-7H-xanthene-10-ium-3-yl]-ethyl-amino]hexanoic Acid Chloride Salt], the ε was 39,000 l/mol*cm in series [1] (UV-Vis in PBS) and 44,000 l/mol*cm in series [1] (UV-Vis in ethanol). Moreover, the λmax was 526 nm in series [1] (UV-Vis in PBS) and 531 nm in series [1] (UV-Vis in ethanol). Further, the λem came out at 606 nm in series [2] (in PBS) and 601 nm in series [2] (in ethanol). In addition, the results for the QY in series [3] (in PBS) and in series [3] (in ethanol) were 0.27 and 0.42, respectively.

Regarding `CC1=CC(C)(C)N(CCCCCC(=O)O)c2cc3c(cc21)C=C1C(=CC(=O)CC1(C)C)O3` [Compound 41, 6-(2,2,4,7,7-pentamethyl-9-oxo-8H-chromeno[3,2-g]quinolin-1-yl)hexanoic Acid], the ε was 23,000 l/mol*cm in series [1] (UV-Vis in PBS) and 24,000 l/mol*cm in series [1] (UV-Vis in ethanol). The λmax was determined as 460 nm in series [1] (UV-Vis in PBS) and 463 nm in series [1] (UV-Vis in ethanol). The values for the λem in series [2] (in PBS) and in series [2] (in ethanol) were 575 nm and 557 nm, respectively.

Regarding `CC1(C)CC(NCCCS(=O)(=O)[O-])=Cc2[o+]c3cc(N(CCCCCC(=O)ON4C(=O)CCC4=O)CCCS(=O)(=O)[O-])ccc3cc21.[Na+]` [Compound 6, 3-[[6-[[6-(2,5-dioxopyrrolidine-1-yl)oxy-6-oxo-hexyl]-(3-sulfonatopropyl)amino]-1,1-dimethyl-2H-xanthene-10-ium-3-yl]amino]propane-1-sulfonate Sodium Salt], in series [1] (UV-Vis in ethanol), the ε was 44,000 l/mol*cm and the λmax was determined as 512 nm. This molecule showed a λem in series [2] (in ethanol) of 570 nm.

On to `CCN(CCCCCC(=O)O)c1ccc2c(c1)OC1=CC(=O)CC(C)(C)C1=C2` [Compound 35, 6-[(8,8-dimethyl-6-oxo-7H-xanthene-3-yl)-ethyl-amino]hexanoic Acid], for which the figures for the ε in series [1] (UV-Vis in PBS) and in series [1] (UV-Vis in ethanol) were 24,200 l/mol*cm and 25,300 l/mol*cm, respectively. Moreover, the λmax in series [1] (UV-Vis in PBS) was 457 nm; in series [1] (UV-Vis in ethanol), 441 nm. Moreover, the λem was 559 nm in series [2] (in PBS) and 540 nm in series [2] (in ethanol).

Take `CCN(CC)c1ccc2cc3c([o+]c2c1)C=C1Oc2cc(N(CC)CCCCCC(=O)O)ccc2C=C1C3(C)C.[Cl-]` [Compound 47, 6-[[9-(diethylamino)-13,13-dimethyl-chromeno[3,2-b]xanthene-7-ium-3-yl]-ethyl-amino]hexanoic Acid Chloride Salt]: the figures for the ε in series [1] (UV-Vis in PBS) and in series [1] (UV-Vis in ethanol) were 37000 L/mol/cm and 80,300 l/mol*cm, respectively. The figures for the λmax in series [1] (UV-Vis in PBS) and in series [1] (UV-Vis in ethanol) were 670 nm and 679 nm, respectively. For the same molecule, the λem came to 710 nm in series [2] (in PBS) and 713 nm in series [2] (in ethanol).
